From ChEMBL document CHEMBL5137128, “Daphnoretin Arrests the Cell Cycle and Induces Apoptosis in Human Breast Cancer Cells” (J Nat Prod, 2022)
Active and inactive are the calls of the source. The calls are words filed in the database; no cut-off is given here.

How the values were obtained:
MCF7 [1] = test: Induction of cell cycle arrest in human MCF7 cells assessed as G2/M phase cells at 1 uM incubated for 24 hrs by propidium iodide staining based flow cytometry analysis (reference value: 0.86 %); type: functional
MCF7 [2] = test: Induction of cell cycle arrest in human MCF7 cells assessed as accumulation of S phase cells at 1 uM incubated for 24 hrs by propidium iodide staining based flow cytometry analysis (reference value: 27.84 %); type: functional
MCF7 [3] = test: Induction of cell cycle arrest in human MCF7 cells assessed as G0-G1 phase cells at 1 uM incubated for 24 hrs by propidium iodide staining based flow cytometry analysis (reference value: 71.30 %); type: functional
MCF7 [4] = test: Antiproliferative activity human MCF7 cells assessed as inhibition of cell proliferation incubated for 24 hrs by MTT assay; type: functional, cell-based; details: MCF7, 24 h
MDA-MB-231 [5] = test: Antiproliferative activity human MDA-MB-231 cells assessed as inhibition of cell proliferation incubated for 24 hrs by MTT assay; type: functional, cell-based; details: MDA-MB-231, 24 h
MCF7 [6] = test: Antiproliferative activity human MCF7 cells assessed as inhibition of cell proliferation at 0.1 to 8 uM incubated for 48 hrs by MTT assay; type: functional, cell-based; details: dose 0.1-8 µM
MDA-MB-231 [7] = test: Antiproliferative activity human MDA-MB-231 cells assessed as inhibition of cell proliferation at 0.1 to 8 uM incubated for 48 hrs by MTT assay; type: functional, cell-based; details: dose 0.1-8 µM
MCF7 [8] = test: Induction of morphological changes in human MCF7 cells assessed as decrease in cell numbers at 1 to 4 uM by electron microscopic analysis; type: functional, cell-based; details: dose 1-4 µM
MDA-MB-231 [9] = test: Induction of morphological changes in human MDA-MB-231 cells assessed as decrease in cell numbers at 0.5 to 2 uM by electron microscopic analysis; type: functional, cell-based; details: dose 0.5-2 µM
MCF7 [10] = test: Induction of morphological changes in human MCF7 cells assessed as deformed cells at 1 to 4 uM by electron microscopic analysis; type: functional, cell-based; details: dose 1-4 µM
MDA-MB-231 [11] = test: Induction of morphological changes in human MDA-MB-231 cells assessed as deformed cells at 0.5 to 2 uM by electron microscopic analysis; type: functional, cell-based; details: dose 0.5-2 µM
MCF7 [12] = test: Induction of morphological changes in human MCF7 cells assessed as cell shrinkage at 1 to 4 uM by electron microscopic analysis; type: functional, cell-based; details: dose 1-4 µM
MDA-MB-231 [13] = test: Induction of morphological changes in human MDA-MB-231 cells assessed as cell shrinkage at 0.5 to 2 uM by electron microscopic analysis; type: functional, cell-based; details: dose 0.5-2 µM
MCF7 [14] = test: Induction of cell cycle arrest in human MCF7 cells assessed as G0-G1 phase cells at 2 uM incubated for 24 hrs by propidium iodide staining based flow cytometry analysis (reference value: 71.30 %); type: functional
MCF7 [15] = test: Induction of cell cycle arrest in human MCF7 cells assessed as accumulation of S phase cells at 2 uM incubated for 24 hrs by propidium iodide staining based flow cytometry analysis (reference value: 27.84 %); type: functional
MCF7 [16] = test: Induction of cell cycle arrest in human MCF7 cells assessed as G2/M phase cells at 2 uM incubated for 24 hrs by propidium iodide staining based flow cytometry analysis (reference value: 0.86 %); type: functional
MCF7 [17] = test: Induction of cell cycle arrest in human MCF7 cells assessed as G0-G1 phase cells at 4 uM incubated for 24 hrs by propidium iodide staining based flow cytometry analysis (reference value: 71.30 %); type: functional
MCF7 [18] = test: Induction of cell cycle arrest in human MCF7 cells assessed as accumulation of S phase cells at 4 uM incubated for 24 hrs by propidium iodide staining based flow cytometry analysis (reference value: 27.84 %); type: functional
MCF7 [19] = test: Induction of cell cycle arrest in human MCF7 cells assessed as G2/M phase cells at 4 uM incubated for 24 hrs by propidium iodide staining based flow cytometry analysis (reference value: 0.86 %); type: functional
MCF7 [20] = test: Induction of cell cycle arrest in human MCF7 cells assessed as downregulation of CDK2 expression at 1 to 4 uM measured upto 24 hrs by Western blot analysis relative to control; type: functional, cell-based; details: dose 1-4 µM
MCF7 [21] = test: Induction of cell cycle arrest in human MCF7 cells assessed as downregulation of cyclin E expression at 1 to 4 uM measured upto 24 hrs by Western blot analysis relative to control; type: functional, cell-based; details: dose 1-4 µM
MDA-MB-231 [22] = test: Induction of cell cycle arrest in human MDA-MB-231 cells assessed as G0-G1 phase cells at 0.5 uM incubated for 24 hrs by propidium iodide staining based flow cytometry analysis (reference value: 66.84 %); type: functional
MDA-MB-231 [23] = test: Induction of cell cycle arrest in human MDA-MB-231 cells assessed as accumulation of S phase cells at 0.5 uM incubated for 24 hrs by propidium iodide staining based flow cytometry analysis (reference value: 28.71 %); type: functional
MDA-MB-231 [24] = test: Induction of cell cycle arrest in human MDA-MB-231 cells assessed as G2/M phase cells at 0.5 uM incubated for 24 hrs by propidium iodide staining based flow cytometry analysis (reference value: 4.44 %); type: functional
MDA-MB-231 [25] = test: Induction of cell cycle arrest in human MDA-MB-231 cells assessed as G0-G1 phase cells at 1 uM incubated for 24 hrs by propidium iodide staining based flow cytometry analysis (reference value: 66.84 %); type: functional
MDA-MB-231 [26] = test: Induction of cell cycle arrest in human MDA-MB-231 cells assessed as accumulation of S phase cells at 1 uM incubated for 24 hrs by propidium iodide staining based flow cytometry analysis (reference value: 28.71 %); type: functional
MDA-MB-231 [27] = test: Induction of cell cycle arrest in human MDA-MB-231 cells assessed as G2/M phase cells at 1 uM incubated for 24 hrs by propidium iodide staining based flow cytometry analysis (reference value: 4.44 %); type: functional
MDA-MB-231 [28] = test: Induction of cell cycle arrest in human MDA-MB-231 cells assessed as G0-G1 phase cells at 2 uM incubated for 24 hrs by propidium iodide staining based flow cytometry analysis (reference value: 66.84 %); type: functional
MDA-MB-231 [29] = test: Induction of cell cycle arrest in human MDA-MB-231 cells assessed as accumulation of S phase cells at 2 uM incubated for 24 hrs by propidium iodide staining based flow cytometry analysis (reference value: 28.71 %); type: functional
MDA-MB-231 [30] = test: Induction of cell cycle arrest in human MDA-MB-231 cells assessed as G2/M phase cells at 2 uM incubated for 24 hrs by propidium iodide staining based flow cytometry analysis (reference value: 4.44 %); type: functional
MDA-MB-231 [31] = test: Induction of cell cycle arrest in human MDA-MB-231 cells assessed as downregulation of CDK2 expression at 0.5 to 2 uM measured upto 24 hrs by Western blot analysis relative to control; type: functional, cell-based; details: dose 0.5-2 µM
MDA-MB-231 [32] = test: Induction of cell cycle arrest in human MDA-MB-231 cells assessed as downregulation of cyclin E expression at 0.5 to 2 uM measured upto 24 hrs by Western blot analysis relative to control; type: functional, cell-based; details: dose 0.5-2 µM
MCF7 [33] = test: Induction of apoptosis in human MCF7 cells assessed as chromatin condensation at 1 to 4 uM incubated for 24 hrs by Hoechst 33258 staining based light microscopic analysis; type: functional, cell-based; details: dose 1-4 µM
MCF7 [34] = test: Induction of apoptosis in human MCF7 cells assessed as nuclear condensation at 1 to 4 uM incubated for 24 hrs by Hoechst 33258 staining based light microscopic analysis; type: functional, cell-based; details: dose 1-4 µM
MCF7 [35] = test: Induction of apoptosis in human MCF7 cells assessed as apoptotic bodies at 1 to 4 uM incubated for 24 hrs by Hoechst 33258 staining based light microscopic analysis; type: functional, cell-based; details: dose 1-4 µM
MCF7 [36] = test: Induction of apoptosis in human MCF7 cells assessed as increase in total apoptotic rate at 1 to 4 uM incubated for 24 hrs by propidium iodide staining based flow cytometric analysis; type: functional, cell-based; details: dose 1-4 µM
MDA-MB-231 [37] = test: Induction of apoptosis in human MDA-MB-231 cells assessed as chromatin condensation at 0.5 to 2 uM incubated for 24 hrs by Hoechst 33258 staining based light microscopic analysis; type: functional, cell-based; details: dose 0.5-2 µM
MDA-MB-231 [38] = test: Induction of apoptosis in human MDA-MB-231 cells assessed as nuclear condensation at 0.5 to 2 uM incubated for 24 hrs by Hoechst 33258 staining based light microscopic analysis; type: functional, cell-based; details: dose 0.5-2 µM
MDA-MB-231 [39] = test: Induction of apoptosis in human MDA-MB-231 cells assessed as apoptotic bodies at 0.5 to 2 uM incubated for 24 hrs by Hoechst 33258 staining based light microscopic analysis; type: functional, cell-based; details: dose 0.5-2 µM
MDA-MB-231 [40] = test: Induction of apoptosis in human MDA-MB-231 cells assessed as increase in total apoptotic rate at 0.5 to 2 uM incubated for 24 hrs by propidium iodide staining based flow cytometry analysis relative to control; type: functional, cell-based; details: dose 0.5-2 µM
MCF7 [41] = test: Induction of apoptosis in human MCF7 cells assessed as decrease in Bcl-2 level at 1 to 4 uM measured upto 24 hrs by Western blot analysis; type: functional, cell-based; details: dose 1-4 µM
MCF7 [42] = test: Induction of apoptosis in human MCF7 cells assessed as increase in cleaved caspase-9 level at 1 to 4 uM measured upto 24 hrs by Western blot analysis; type: functional, cell-based; details: dose 1-4 µM
MCF7 [43] = test: Induction of apoptosis in human MCF7 cells assessed as increase in cleaved caspase-3 level at 1 to 4 uM measured upto 24 hrs by Western blot analysis; type: functional, cell-based; details: dose 1-4 µM
MCF7 [44] = test: Induction of apoptosis in human MCF7 cells assessed as increase in Bax level at 1 to 4 uM measured upto 24 hrs by Western blot analysis; type: functional, cell-based; details: dose 1-4 µM
MDA-MB-231 [45] = test: Induction of apoptosis in human MDA-MB-231 cells assessed as decrease in Bcl-2 level at 0.5 to 2 uM measured upto 24 hrs by Western blot analysis; type: functional, cell-based; details: dose 0.5-2 µM
MDA-MB-231 [46] = test: Induction of apoptosis in human MDA-MB-231 cells assessed as increase in cleaved caspase-9 level at 0.5 to 2 uM measured upto 24 hrs by Western blot analysis; type: functional, cell-based; details: dose 0.5-2 µM
MDA-MB-231 [47] = test: Induction of apoptosis in human MDA-MB-231 cells assessed as increase in cleaved caspase-3 level at 0.5 to 2 uM measured upto 24 hrs by Western blot analysis; type: functional, cell-based; details: dose 0.5-2 µM
MDA-MB-231 [48] = test: Induction of apoptosis in human MDA-MB-231 cells assessed as increase in Bax level at 0.5 to 2 uM measured upto 24 hrs by Western blot analysis; type: functional, cell-based; details: dose 0.5-2 µM
MCF7 [49] = test: Inhibition of PI3K phosphorylation in human MCF7 cells at 1 to 4 uM by Western blot analysis; type: cell-based; details: dose 1-4 µM
MCF7 [50] = test: Inhibition of AKT phosphorylation in human MCF7 cells at 1 to 4 uM by Western blot analysis; type: cell-based; details: dose 1-4 µM
MDA-MB-231 [51] = test: Inhibition of PI3K phosphorylation in human MDA-MB-231 cells at 0.5 to 2 uM by Western blot analysis; type: cell-based; details: dose 0.5-2 µM
MDA-MB-231 [52] = test: Inhibition of AKT phosphorylation in human MDA-MB-231 cells at 0.5 to 2 uM by Western blot analysis; type: cell-based; details: dose 0.5-2 µM

SMILES: COc1cc2cc(Oc3ccc4ccc(=O)oc4c3)c(=O)oc2cc1O [DAPHNORETIN]
- Activity (MCF7 [1]): 1.92%
- Activity (MCF7 [2]): 38.59%
- Activity (MCF7 [3]): 59.49%
- IC50 (MCF7 [4]): 2000 nM
- IC50 (MDA-MB-231 [5]): 1000 nM
- Activity (MCF7 [6]): Active
- Activity (MDA-MB-231 [7]): Active
- Activity (MCF7 [8]): Active
- Activity (MDA-MB-231 [9]): Active
- Activity (MCF7 [10]): Active
- Activity (MDA-MB-231 [11]): Active
- Activity (MCF7 [12]): Active
- Activity (MDA-MB-231 [13]): Active
- Activity (MCF7 [14]): 50.95%
- Activity (MCF7 [15]): 43.73%
- Activity (MCF7 [16]): 5.32%
- Activity (MCF7 [17]): 51.27%
- Activity (MCF7 [18]): 46.53%
- Activity (MCF7 [19]): 2.2%
- Activity (MCF7 [20]): Active
- Activity (MCF7 [21]): Active
- Activity (MDA-MB-231 [22]): 53.37%
- Activity (MDA-MB-231 [23]): 37.3%
- Activity (MDA-MB-231 [24]): 9.33%
- Activity (MDA-MB-231 [25]): 46%
- Activity (MDA-MB-231 [26]): 45.58%
- Activity (MDA-MB-231 [27]): 8.43%
- Activity (MDA-MB-231 [28]): 36.99%
- Activity (MDA-MB-231 [29]): 47.72%
- Activity (MDA-MB-231 [30]): 15.29%
- Activity (MDA-MB-231 [31]): Active
- Activity (MDA-MB-231 [32]): Active
- Activity (MCF7 [33]): Active
- Activity (MCF7 [34]): Active
- Activity (MCF7 [35]): Active
- Activity (MCF7 [36]): Active
- Activity (MDA-MB-231 [37]): Active
- Activity (MDA-MB-231 [38]): Active
- Activity (MDA-MB-231 [39]): Active
- Activity (MDA-MB-231 [40]): Active
- Activity (MCF7 [41]): Active
- Activity (MCF7 [42]): Active
- Activity (MCF7 [43]): Active
- Activity (MCF7 [44]): Active
- Activity (MDA-MB-231 [45]): Active
- Activity (MDA-MB-231 [46]): Active
- Activity (MDA-MB-231 [47]): Active
- Activity (MDA-MB-231 [48]): Active
- inhibition (MCF7 [49]): Active
- inhibition (MCF7 [50]): Active
- inhibition (MDA-MB-231 [51]): Active
- inhibition (MDA-MB-231 [52]): Active
